{"source": "ChEMBL document CHEMBL1148132", "about": "“Abietane diterpenoids from Coleus xanthanthus” (J Nat Prod, 2002)"}
{"test_system": "K562", "experiment": "Cytotoxicity against human K562 cells after 48 hrs by MTT assay", "assay_type": "functional, cell-based", "conditions": "K562, 48 h", "units": {"IC50": "µg/mL"}}
{"molecule": "CC(C)C1=C(O)C(=O)C2=C(C(=O)C(O)=C3C(C)(C)CCC[C@]23C)C1=O", "IC50": 3}
{"molecule": "CC(=O)Oc1c(O)c(C(C)C)c(O)c2c1[C@@]1(C)CCCC(C)(C)C1=C(O)C2=O", "IC50": 2.2}
{"molecule": "CC(C)C1=C(O)C(=O)[C@@]23O[C@@]2(C(=O)C(O)=C2C(C)(C)CCC[C@@]23C)C1=O", "IC50": 13.9}
{"molecule": "O=C1c2c(O)ccc(O)c2C(=O)c2c(NCCNCCO)ccc(NCCNCCO)c21", "note": "[MITOXANTRONE]", "IC50": 2}
{"molecule": "CC(C)C1=C(O)C(=O)C([C@@]2(C)CCCC(C)(C)C2=O)=C(C(=O)O)C1=O", "note": "[XANTHANTHUSIN E]", "IC50": 34.3}
{"molecule": "CC(=O)OCC(C)C1=C(OC(C)=O)C(=O)C2=C(C(=O)C(O)=C3C(C)(C)CCC[C@]23C)C1=O", "note": "(stereo partly specified) [XANTHANTHUSIN H]", "IC50": 12.9}
